The values that follow come from patent US5561042A, “Diamine platinum naphthalimide complexes as antitumor agents” (Cancer Therapy and Research Center, priority 1995, dated 1996).

The test system of one data set is B16 murine melanoma. As to the kind of experiment: B16 melanoma in vivo, survival of B6D2F1 mice. The conditions noted are these: for T/C: mean survival treated/control.
Data set [1] deals with poly (dA.dT) - poly (dA.dT). As to the kind of experiment: Ethidium bromide displacement, poly(dA.dT)-poly(dA.dT). It is filed as binding. The conditions noted are these: 1 μM DNA, 1.26 μM ethidium bromide, pH 7.0, read-out: FI50, poly (dA.dT) - poly (dA.dT). The procedure: (§1) A 10× Binding solution was prepared by combining 0.93 ml of an aqueous NaCl solution (5M), 2.0 ml of an aqueous Tris HCl (500 mM) solution, 0.1 ml of an EDTA solution (500 mM) and 46.97 ml of water. The resultant solution was 93 mM in NaCl, 20 mM in Tris HCl, and 1 mM in EDTA. Stock DNA solution were prepared as follows: Poly (dG·dC)-(dG·dC) (ε254=8.4/mM; 27-7910-02), poly(dA·dT)-(dA·dT) (ε262=6.6/mM; 27-7870-02), and lambda DNA (ε260-7.0/mM; 27-4111-01) were purchased from Pharmacia. Solutions were prepared by resuspending either poly (dG·dC)-(dG·dC) or poly(dA·dT)-(dA·dT)in 1 ml of 10× DNA Binding Solution. Lambda DNA is already in solution as purchased.
(§2) Poly (dG·dC)-(dG·dC), poly(dA·dt)-(dA·dt) and lambda DNA concentrations were determined as follows: 980 μl of 10× DNA Binding Solution was pipetted into a 1 ml cuvette. A blank was run on the UV spectrophotometer. 20 μl of the DNA stock of unknown concentration was then added into the cuvette. The sample was then scanned between 210 nm to 500 nm and the absorbance recorded at 254 nm for poly(dG·dC)-(dG·dC), at 262 nm for poly(dA·dT)-(dA·dT) and at 260 nm for lambda DNA. The solution was transferred to a clean tube. This procedure was followed for three different solutions with the absorbance taken as the average of the three. The concentration of poly(dG·dC)-(dG·dC) stock was calculated to be A254 /8.4×1000 (in μM). The concentration of poly(dA·dT)-(dA·dT) stock was calculated to be A262 /6.6×1000 (in μM). The concentration of lambda DNA stock was calculated to be A260 /7.0×1000 (in μM).
(§3) The binding of the bis-naphthalimides to DNA and to synthetic polynucleotide duplexes was determined by an ethidium bromide displacement assay that measures the reduction of fluorescence when ethidium bromide is displaced from DNA (Baguley, 1981). The fluorescence intensity of a 3 ml solution containing 9.3 mM NaCl, 2 mM Tris-HCl (pH 7.0), 100 μM EDTA, 1 μM DNA (in nucleotides) and 1.26 μM ethidium bromide in a quartz cuvette was measured at the excitation (546 nm) and emission (600 nm) wavelengths on a Shimadzu RF5000U spectrofluorometer. Graded concentrations of agent were then added and the fluorescence intensity was measured. The concentration of compound required to reduce the fluorescence intensity by 50% of that of control (FI50) was determined. Therefore, the lower the FI50 the stronger the binding affinity a particular compound has for DNA.
(§4) The ability of bis-naphthalimides of the present invention and the known anti-cancer agents compound 22 and DMP840, (R,R)-2,2'[1,2-ethanediylbis[imino(1-methyl-2,1-ethanediyl)]]-bis[5-nitro- 1H benz[de]isoquinoline-1,3-(2H)dione]dimethanesulfonate, to bind to DNA and to synthetic oligonucleotide duplexes was measured using an ethidium bromide displacement assay. Ethidium bromide, a known DNA intercalator, has no fluorescence in the absence of DNA; however, fluorescence intensity increases when ethidium bromide binds to DNA. The ethidium bromide displacement assay measures the decrease in fluorescence intensity caused by DNA-bound ethidium bromide with DNA interacting agents.

The test system of data set [2] is HT29 Human Colon Carcinoma cell line. Kind of data set: In vitro growth inhibition (MTT), HT29 colon carcinoma. It is filed as cell-based. As to conditions: 6 days. The source says:
(§5) P388 murine leukemic cell line was obtained from the DCT Tumor Repository (National Cancer Institute, Frederick Cancer Research and Development, Frederick Md. 21702). HT29 Human Colon Carcinoma cell line was obtained from the American Type Culture Collection (12301 Parklawn Drive, Rockville, Md. 20852). B16 Melanoma cell line was obtained from DuPont Merck Pharmaceutical Company (Glenolden, Pa. 19036). MCF-7 Human Breast Carcinoma cell line was a gift from Dr. K. Osborne (Department of Medicine, The University of Texas Health Science Center at San Antonio, San Antonio, Tex. 78284). All cell lines were incubated at 37° C. in a humidified atmosphere of 5% CO2 -95% air. Murine B16 melanoma cell line was grown in RPMI 1640 medium supplemented with 10% heat-inactivated fetal bovine serum, 2 mM L-glutamine, 50 units/ml penicillin, 50 μg/ml streptomycin, 25 μg/ml gentamycin, 0.75% sodium bicarbonate, 10 mM HEPES buffer (pH 7.4), and 0.06 mg/ml AntiPPLO. Murine P388 leukemic and the human HT-29 colon adenocarcinoma cell lines were maintained in RPMI 1640 medium supplemented with 10% heat-inactivated fetal bovine serum. MCF-7M human breast adenocarcinoma was maintained in IMEM medium supplemented with 5% non heat-inactivated fetal bovine serum and 1 nM insulin.
(§6) Exponentially growing cells (1-2×10^3 cells, unless specified otherwise) in 0.1 ml medium were seeded on day 0 in a 96-well microtiter plate. On day 1, 0.1 ml aliquots of medium containing graded concentrations of test compounds were added in duplicate to the cell plates. After incubation at 37° C. in a humidified incubator for 3 days (P388, B16) or 6 days (HT-29, MCF-7M), the plates were centrifuged briefly and 100 μl of the growth medium was removed. Cell cultures were incubated with 50 μl of 3-(4,5-dimethylthiazol-2-yl)-2,5-diphenyl-tetrazolium bromide [MTT, 1 mg/ml in Dulbecco's phosphate buffered saline (PBS)] for 4 hr at 37° C. The resulting purple formazan precipitate was solubilized with 200 μl of 0.04N HCl in isopropyl alcohol. Absorbance was monitored in a BioRad Model 3550 Microplate Reader at a test wavelength of 570 nm and a reference wavelength of 630 nm. The absorbance was transferred to a PC 486 computer. The IC50 values were determined by a computer program (EZ-ED50) that fit all of the data to the following four-parameterlogistic equation:
(§7) Y=((Am -Ao)/(1+(X/IC50)^n))+Ao
(§8) where Am is the absorbance of control cells, Ao is the absorbance of cells in the presence of highest agent concentration, Y is the observed absorbance, X is the agent concentration, IC50 is the concentration of agent that inhibits the cell growth by 50% of control cells (based on the absorbance) and n is the slope of the curve.

Data set [3] concerns poly (dG.dC) - poly (dG.dC). Kind of data set: Ethidium bromide displacement, poly(dG.dC)-poly(dG.dC). It is filed as binding. The conditions noted are these: for Ratio (AT/GC): FI50 poly(dA.dT)-poly(dA.dT) / FI50 poly(dG.dC)-poly(dG.dC); for IC50: ethidium bromide displacement, 1 μM DNA, 1.26 μM ethidium bromide, pH 7.0, read-out: FI50, poly (dG.dC) - poly (dG.dC). The procedure:
as §1, §2, §3, §4

A further data set deals with Lambda DNA. As to the kind of experiment: Ethidium bromide displacement, lambda DNA. It counts as binding. The conditions noted are these: 1 μM DNA, 1.26 μM ethidium bromide, pH 7.0, read-out: FI50, Lambda DNA. The procedure:
as §1, §2, §3, §4

Data set [4] has as its system MCF-7 Human Breast Carcinoma cell line. Kind of data set: In vitro growth inhibition (MTT), MCF-7 breast carcinoma. It is filed as cell-based. The conditions noted are these: 6 days.
Description: as §5, §6, §7, §8

Data set [5] concerns Murine B16 melanoma cell line. As to the kind of experiment: In vitro growth inhibition (MTT), B16 melanoma. It counts as cell-based. As to conditions: MTT, 3 days.
Description: as §5, §6, §7, §8

For data set [6], the system named is P388 murine leukemic cell line. Kind of data set: In vitro growth inhibition (MTT), P388 leukemia. It counts as cell-based. As to conditions: 3 days.
Description: as §5, §6, §7, §8

Bounds are passed on as bounds.

Description for B16 murine melanoma: B6D2F1 mice received i.p. inocula of B16 murine melanoma brei prepared from B16 tumors growing subcutaneously in mice (day 0). On day 1, rumored mice were treated with drugs or vehicle control; the route of drug administration and schedule were selected as appropriate for the study in question. If dosing information for agents was not available, the maximum tolerated dose (MTD) was determined in initial dose finding experiments in non-tumored mice. In a typical experiment, drugs were given at their MTD and 1/2 MTD doses i.p. on a daily×5 schedule.
The mean survival times of all groups were calculated, and results were expressed as mean survival of treated mice/mean survival of control mice (T/C)×100%. A T/C value of 150 means that the mice in the treated group lived 50% longer than those of the control group; this is sometimes referred to as the increase in life space, or ILS value.
Mice that survived for 60 days were considered long term survivors, or cures, in the B16 model. The universally accepted cut-off for activity in this model, which has been used for years by the National Cancer Institute, is T/C=125.
Statistics were performed on the data using primarily the log rank p-value test.

The T/C is the result in the treated group divided by that in the control group, in per cent. Take `O=C1c2cccc3cc([N+](=O)[O-])cc(c23)C(=O)N1CCNCCNCCN1C(=O)c2cccc3cc([N+](=O)[O-])cc(c23)C1=O` [Compound 23, 2,2'[1,2-ethanediylbis[imino(2,1-ethanediyl)]]-bis[5-nitro-1H-benz[de]isoquinoline-1,3-(2H)-dione]]: in the data set on B16 murine melanoma (2.5 mg/kg, q.d. × 5, i.p.), the “60-Day Survivors” value is recorded as 0, the “Wt. Ch. (%) (Day 7)” value was determined as 0.95% and the T/C is 162%.

In the case of `O=C1c2cccc3cc([N+](=O)[O-])cc(c23)C(=O)N1CCNCCS(=O)(=O)CCN1C(=O)c2cccc3cc([N+](=O)[O-])cc(c23)C1=O` [Compound 15, 5-[2-(3-Nitronaphthalene-1,8-dicarboximido)ethylamino]-1-(3-nitronaphthalene-1,8-dicarboximido)-3-sulfonylpentane hydromethanesulfonate], the IC50 in data set [1] stood at 17.1 µM; in data set [2], 22 nM; in data set [3], 118 nM; at Lambda DNA, 1030 nM; in data set [4], 36 nM; in data set [5], 34 nM. In data set [6], this compound displayed an IC50 of 29.9 nM. Further, the “Ratio (AT/GC)” value in data set [3] worked out at 144.4.

In the case of `O=P1(N(CCCl)CCCl)NCCCO1` (centres unmarked) [Cytoxan], in the data set with B16 murine melanoma (150 mg/kg, q.d. × 5, i.p.), the “60-Day Survivors” value stood at 0, the “Wt. Ch. (%) (Day 7)” value is -12.2% and the T/C worked out at 175%. Also, in the data set with B16 murine melanoma (300 mg/kg, q.d. × 1, i.p.), the “60-Day Survivors” value worked out at 0, the “Wt. Ch. (%) (Day 7)” value is recorded as -6.6% and the T/C is listed as 197%. Also, the highest effective dose with B16 murine melanoma (mouse, in vivo) is 300 mg/kg.

In the case of `O=C1c2cccc3cc([N+](=O)[O-])cc(c23)C(=O)N1CCNCCNCCN1C(=O)c2cccc3cc([N+](=O)[O-])cc(c23)C1=O` [Compound 22, 2,2'[1,2-ethanediylbis[imino(2,1-ethanediyl)]]-bis[5-nitro-1H-benz[de]isoquinoline-1,3-(2H)-dione]dimethanesulfonate], in the data set with B16 murine melanoma (2.5 mg/kg, q.d. × 5, i.p.), the “60-Day Survivors” value came out at 0, the “Wt. Ch. (%) (Day 7)” value was -0.17% and the T/C came out at 141%. In addition, the “Ratio (AT/GC)” value in data set [3] was 16.5.

Take `O=C1c2cccc3cc([N+](=O)[O-])cc(c23)C(=O)N1CCNCC[S+]([O-])CCN1C(=O)c2cccc3cc([N+](=O)[O-])cc(c23)C1=O` (centres unmarked) [Compound 13]: the IC50 in data set [1] was 3.85 µM; in data set [2] it was 0.2 nM; in data set [3], 18 nM; at Lambda DNA it was 180 nM; in data set [4], less than 0.1 nM; in data set [5], 1.6 nM. The same compound yielded an IC50 in data set [6] of less than 5 nM. Also, the “Ratio (AT/GC)” value in data set [3] is listed as 212.6.

`O=C1c2cccc3cc([N+](=O)[O-])cc(c23)C(=O)N1CCNCCSCCN1C(=O)c2cccc3cc([N+](=O)[O-])cc(c23)C1=O` [Compound 10, 5-[2-(3-Nitronaphthalene-1,8-dicarboximido)ethylamino]-1-(3-nitronaphthalene-1,8-dicarboximido)-3-thiopentane]: the IC50 in data set [1] is 17.2 µM; in data set [3], 770 nM; on Lambda DNA it was 7370 nM; in data set [4] (Homo sapiens, MCF7, 144 h), 9 nM; in data set [5] (Mus musculus, B16, 72 h) it was 33 nM; in data set [6] (Mus musculus, P388, 72 h), 56.5 nM. The “Ratio (AT/GC)” value in data set [3] is reported as 22.3.

Turning to `O=C1c2cccc3cc([N+](=O)[O-])cc(c23)C(=O)N1CCNCC[S+]([O-])CCN1C(=O)c2cccc3cc([N+](=O)[O-])cc(c23)C1=O` (centres unmarked) [Compound 12], the IC50 was found to be 6.38 µM in data set [1]; 1.7 nM in data set [2]; 125 nM in data set [3]; 169 nM at Lambda DNA; 1.6 nM in data set [4]; 6.3 nM in data set [5]. In data set [6] (Mus musculus, P388, 72 h), the IC50 was found to be 9 nM. The “Ratio (AT/GC)” value in data set [3] is recorded as 51.06.

As to `O=C1c2cccc3cc([N+](=O)[O-])cc(c23)C(=O)N1CCNCCS(=O)(=O)CCN1C(=O)c2cccc3cc([N+](=O)[O-])cc(c23)C1=O` [Compound 14], the IC50 in data set [1] was 43.3 µM; in data set [2] (Homo sapiens, HT-29, 144 h), 44 nM; in data set [3], 672 nM; on Lambda DNA, 24200 nM; in data set [4], 132 nM; in data set [5], 86 nM. The compound further yielded an IC50 in data set [6] (Mus musculus, P388, 72 h) of 27 nM. In addition, in data set [3], the “Ratio (AT/GC)” value was 64.38.
